Reference: ChEMBL document CHEMBL1201862, “PubChem BioAssay data set” (2004)
Active and inactive are the calls of the source.

Experiments:
Large T antigen = Large T antigen (Simian virus 40, UniProt P03070); format: functional, Betapolyomavirus macacae;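 note: Confirmatory-stage PubChem screen for compounds that inhibit SV40 T antigen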
Cytochrome P450 2D6 = Cytochrome P450 2D6 (Homo sapiens, UniProt P10635);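 note: CYP2D6 member of a cytochrome P450 panel assay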
Cytochrome P450 2C9 = Cytochrome P450 2C9 (Homo sapiens, UniProt P11712)
Sequence of Cytochrome P450 2C9 (P11712 whole entry): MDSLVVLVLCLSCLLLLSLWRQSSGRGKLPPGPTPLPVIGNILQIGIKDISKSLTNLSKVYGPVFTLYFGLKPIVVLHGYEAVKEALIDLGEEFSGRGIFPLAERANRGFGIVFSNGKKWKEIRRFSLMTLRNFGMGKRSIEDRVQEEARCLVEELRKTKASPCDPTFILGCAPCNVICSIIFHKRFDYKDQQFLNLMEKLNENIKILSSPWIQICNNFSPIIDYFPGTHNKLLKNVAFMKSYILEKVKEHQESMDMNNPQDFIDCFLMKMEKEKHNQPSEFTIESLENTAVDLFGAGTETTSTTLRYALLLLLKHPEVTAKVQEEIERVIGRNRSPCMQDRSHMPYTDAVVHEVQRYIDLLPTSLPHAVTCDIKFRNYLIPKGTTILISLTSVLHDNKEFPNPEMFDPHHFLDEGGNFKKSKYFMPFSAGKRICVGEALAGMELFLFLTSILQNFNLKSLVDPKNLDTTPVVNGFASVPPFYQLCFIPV

Cytochrome P450 1A2 = molecular target: T1, Cytochrome P450 1A2 (Homo sapiens, UniProt P05177);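 note: PubChem cytochrome P450 panel assay, CYP1A2 panel member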
T1 sequence (P05177 whole entry): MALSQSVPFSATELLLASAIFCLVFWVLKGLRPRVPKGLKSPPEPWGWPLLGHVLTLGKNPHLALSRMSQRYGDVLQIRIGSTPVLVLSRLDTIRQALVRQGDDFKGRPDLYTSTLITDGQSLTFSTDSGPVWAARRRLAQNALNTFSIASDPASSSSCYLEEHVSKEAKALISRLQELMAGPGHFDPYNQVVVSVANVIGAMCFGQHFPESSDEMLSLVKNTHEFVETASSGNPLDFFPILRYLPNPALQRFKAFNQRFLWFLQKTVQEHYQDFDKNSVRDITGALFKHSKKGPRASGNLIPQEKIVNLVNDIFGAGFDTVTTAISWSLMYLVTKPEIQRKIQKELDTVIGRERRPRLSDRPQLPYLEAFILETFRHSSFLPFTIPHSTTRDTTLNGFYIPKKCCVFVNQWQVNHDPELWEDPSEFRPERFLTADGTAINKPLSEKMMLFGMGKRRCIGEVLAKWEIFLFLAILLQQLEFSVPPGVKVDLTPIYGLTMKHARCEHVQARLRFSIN

[1] = growth suppression of PTEN-null colon cells, dose response, cell-based, HCT116 PTEN knockout (AID 1047); format: functional;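 note: HCT116 colon tumor cells with PTEN knocked out; cells exposed to compound for 60 hours before readout; potency for loss of cell viability measured by luminescence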
[2] = growth suppression of beta-catenin-knockout colon cells, dose response, cell-based, HCT116, human colon tumor (AID 1045); format: functional;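 note: HCT116 colon tumor cells with beta catenin knocked out; cells exposed to compound for 60 hours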
P388 = assay: cells; format: functional; conditions: Mus musculus
SN12K1 = assay: cells; format: functional; conditions: Homo sapiens
P388/ADR = assay: cells; format: functional; conditions: Mus musculus
Paired box protein Pax-8 = Paired box protein Pax-8 (Homo sapiens, UniProt Q06710); assay: inhibitors of PAX8-driven TPO luciferase reporter, dose response, RMG-I cells, cherry-pick (AID 687027); format: functional, cell-based;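 note: luciferase reporter driven by Pax8 target thyroperoxidase promoter measured by SteadyGlo luminescence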
Sequence of Paired box protein Pax-8 (Q06710 whole entry): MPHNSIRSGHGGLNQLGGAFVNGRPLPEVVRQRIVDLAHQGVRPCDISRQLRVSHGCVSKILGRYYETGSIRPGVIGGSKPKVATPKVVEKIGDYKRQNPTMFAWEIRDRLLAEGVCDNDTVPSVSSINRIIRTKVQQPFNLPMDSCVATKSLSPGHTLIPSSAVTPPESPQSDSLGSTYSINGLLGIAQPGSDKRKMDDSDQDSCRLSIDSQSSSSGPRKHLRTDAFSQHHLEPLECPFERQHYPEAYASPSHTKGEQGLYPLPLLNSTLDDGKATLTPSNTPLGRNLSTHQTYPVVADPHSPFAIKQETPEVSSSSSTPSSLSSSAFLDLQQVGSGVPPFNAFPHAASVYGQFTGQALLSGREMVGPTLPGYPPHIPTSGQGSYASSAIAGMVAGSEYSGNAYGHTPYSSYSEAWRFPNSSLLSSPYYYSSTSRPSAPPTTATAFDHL

[3] = Luminescence Cell-Based Dose Retest to Confirm Inhibitors of Cancer Stem Cells. [Related pubchem assays (depositor defined):AID2717, AID2721]; format: functional; conditions: Homo sapiens
Genome polyprotein = Genome polyprotein (dengue virus type 2, UniProt P29990); assay: Dengue-2 NS5 methyltransferase inhibitors, primary screen, biochemical, confirmation dose response (AID 588689); format: functional
Sequence of Genome polyprotein (P29990 2492-3391 limits assumed): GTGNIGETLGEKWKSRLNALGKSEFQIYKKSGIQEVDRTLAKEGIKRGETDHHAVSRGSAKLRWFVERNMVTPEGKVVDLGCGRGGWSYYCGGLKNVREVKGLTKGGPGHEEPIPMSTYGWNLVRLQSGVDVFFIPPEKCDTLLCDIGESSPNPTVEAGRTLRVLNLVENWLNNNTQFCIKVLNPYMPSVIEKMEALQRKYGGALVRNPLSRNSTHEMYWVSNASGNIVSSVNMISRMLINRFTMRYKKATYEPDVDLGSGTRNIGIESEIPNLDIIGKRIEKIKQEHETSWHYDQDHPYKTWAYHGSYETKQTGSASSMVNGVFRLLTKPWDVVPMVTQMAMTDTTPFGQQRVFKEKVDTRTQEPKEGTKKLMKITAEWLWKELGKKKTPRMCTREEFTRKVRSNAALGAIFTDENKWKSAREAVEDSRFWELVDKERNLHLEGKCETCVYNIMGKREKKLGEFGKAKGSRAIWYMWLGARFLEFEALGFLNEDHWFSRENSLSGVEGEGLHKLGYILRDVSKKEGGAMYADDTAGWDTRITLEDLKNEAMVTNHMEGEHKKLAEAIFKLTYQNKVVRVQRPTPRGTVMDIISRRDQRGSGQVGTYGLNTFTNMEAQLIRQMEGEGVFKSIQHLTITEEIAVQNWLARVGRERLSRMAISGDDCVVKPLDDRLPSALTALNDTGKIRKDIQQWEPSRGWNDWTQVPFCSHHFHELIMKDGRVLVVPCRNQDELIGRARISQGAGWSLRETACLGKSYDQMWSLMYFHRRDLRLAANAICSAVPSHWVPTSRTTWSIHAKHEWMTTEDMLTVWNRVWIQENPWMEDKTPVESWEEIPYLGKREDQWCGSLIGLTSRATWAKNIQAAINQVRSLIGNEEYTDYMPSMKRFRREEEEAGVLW

[4] = intracellular Trypanosoma cruzi inhibitors in host cells – cell-based, plate reader, cherry-pick samples, set 3, dose response (AID 651818); format: functional;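 note: compounds incubated with infected cells for about four days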
Protein skinhead-1 = molecular target: T2, Protein skinhead-1 (Caenorhabditis elegans, UniProt P34707); format: functional
T2 sequence (P34707 whole entry): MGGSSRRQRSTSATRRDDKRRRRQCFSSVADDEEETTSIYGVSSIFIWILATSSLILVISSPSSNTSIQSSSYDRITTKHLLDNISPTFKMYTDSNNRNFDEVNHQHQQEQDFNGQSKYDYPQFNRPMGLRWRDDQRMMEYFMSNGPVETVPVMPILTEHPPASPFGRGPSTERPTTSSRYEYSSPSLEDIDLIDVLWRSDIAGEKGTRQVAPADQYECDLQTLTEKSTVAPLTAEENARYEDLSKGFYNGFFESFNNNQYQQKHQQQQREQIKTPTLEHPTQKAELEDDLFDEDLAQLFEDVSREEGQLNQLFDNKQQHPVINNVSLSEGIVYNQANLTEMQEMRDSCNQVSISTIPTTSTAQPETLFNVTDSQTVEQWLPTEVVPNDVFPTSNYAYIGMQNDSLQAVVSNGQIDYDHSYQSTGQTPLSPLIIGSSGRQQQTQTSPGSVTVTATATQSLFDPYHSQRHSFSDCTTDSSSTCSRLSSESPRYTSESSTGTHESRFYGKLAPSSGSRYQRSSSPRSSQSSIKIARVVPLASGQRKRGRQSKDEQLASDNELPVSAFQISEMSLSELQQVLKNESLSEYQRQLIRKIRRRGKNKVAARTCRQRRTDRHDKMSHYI

[5] = control 3'UTR Renilla luciferase suppression, dose response, counter-screen for Shn3 inhibitor project, cell-based, Clone20-Shn3RL, cherry-picked (AID 624133); format: functional
[6] = Shn3 3'UTR reporter inhibitors, dose response, cell-based, Clone20 osteoblasts, firefly luciferase, cherry-picked (AID 624132); format: functional;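 note: firefly luciferase luminescence from reporter carrying the Shn3 3'UTR in osteoblasts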
Nonstructural protein 1 = Nonstructural protein 1 (Influenza A virus, UniProt Q194T2); format: functional, Influenza A virus (A/California/07/2009(H1N1))
Sequence of Nonstructural protein 1 (Q194T2 whole entry): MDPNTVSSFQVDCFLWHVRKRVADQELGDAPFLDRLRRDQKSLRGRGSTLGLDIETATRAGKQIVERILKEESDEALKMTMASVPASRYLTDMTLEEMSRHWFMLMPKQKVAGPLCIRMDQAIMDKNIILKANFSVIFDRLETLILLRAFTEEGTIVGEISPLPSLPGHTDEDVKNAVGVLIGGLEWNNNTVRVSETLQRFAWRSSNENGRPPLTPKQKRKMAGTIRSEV

Sequence of Large T antigen (P03070 whole entry): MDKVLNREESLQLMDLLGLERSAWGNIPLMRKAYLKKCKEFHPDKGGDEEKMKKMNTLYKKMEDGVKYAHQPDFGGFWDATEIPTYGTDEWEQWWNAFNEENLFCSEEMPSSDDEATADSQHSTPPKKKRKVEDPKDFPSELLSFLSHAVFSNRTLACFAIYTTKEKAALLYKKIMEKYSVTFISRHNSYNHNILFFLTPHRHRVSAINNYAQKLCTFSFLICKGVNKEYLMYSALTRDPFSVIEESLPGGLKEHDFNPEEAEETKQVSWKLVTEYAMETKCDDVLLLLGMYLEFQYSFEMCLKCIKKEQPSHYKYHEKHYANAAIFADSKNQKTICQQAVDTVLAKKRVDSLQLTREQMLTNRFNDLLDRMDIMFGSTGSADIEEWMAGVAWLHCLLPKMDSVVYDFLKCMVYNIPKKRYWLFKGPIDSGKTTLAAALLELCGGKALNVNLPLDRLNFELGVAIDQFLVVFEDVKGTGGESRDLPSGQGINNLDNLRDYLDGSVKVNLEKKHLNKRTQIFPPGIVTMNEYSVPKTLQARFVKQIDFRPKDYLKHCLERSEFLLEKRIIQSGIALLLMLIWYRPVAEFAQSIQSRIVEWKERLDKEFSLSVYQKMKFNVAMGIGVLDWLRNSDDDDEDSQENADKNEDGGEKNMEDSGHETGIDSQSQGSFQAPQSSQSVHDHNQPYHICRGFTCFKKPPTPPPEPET
Sequence of Cytochrome P450 2D6 (P10635 whole entry): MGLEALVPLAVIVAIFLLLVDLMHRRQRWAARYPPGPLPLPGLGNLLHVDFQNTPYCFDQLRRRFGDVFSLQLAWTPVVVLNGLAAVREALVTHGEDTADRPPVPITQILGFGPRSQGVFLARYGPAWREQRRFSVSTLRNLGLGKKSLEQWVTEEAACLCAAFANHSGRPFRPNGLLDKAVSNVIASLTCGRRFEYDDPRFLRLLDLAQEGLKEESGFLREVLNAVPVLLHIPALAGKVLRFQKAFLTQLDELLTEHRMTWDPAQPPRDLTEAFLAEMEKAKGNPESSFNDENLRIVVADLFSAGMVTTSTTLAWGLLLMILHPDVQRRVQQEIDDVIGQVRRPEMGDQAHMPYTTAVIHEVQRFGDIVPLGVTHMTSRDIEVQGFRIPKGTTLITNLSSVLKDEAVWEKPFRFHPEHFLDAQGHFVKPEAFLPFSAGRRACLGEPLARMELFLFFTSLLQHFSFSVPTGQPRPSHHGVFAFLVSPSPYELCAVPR

CC(Cc1ccccc1Sc1ccc(O)cc1)N(C)C (configuration not stated)
IC50 (Large T antigen): 71.9 µM (active)

O=C(c1csnn1)N1CCC2(CC1)CCN(c1ccccn1)CC2
AC50 (Cytochrome P450 2D6): 20 µM (inconclusive)
AC50 (Cytochrome P450 2C9): 20 µM (inconclusive)
AC50 (Cytochrome P450 1A2): 25.1 µM (inconclusive)

CCC(=C(c1ccc(OC)cc1)c1ccc(OC)cc1)c1cn(CC(O)CN2CCN(C)CC2)c2ccccc12 (configuration not stated)
EC50 [1]: 7.95 µM (active)
EC50 [2]: 6.34 µM (active)

CC(C)CCCCCCCCCCCCC(=O)NCC(=O)NC1C(C)OC(Nc2[nH]cnc3ncnc2-3)C(O)C1O (configuration not stated)
GI50 (P388): 0.01 µM (active)
GI50 (SN12K1): 0.01 µM (active)
GI50 (P388/ADR): 0.01 µM (active)
AC50 (Paired box protein Pax-8): < 0.26 µM (active)

C[N+](C)(C)CCOC(=O)/C=C/c1c[nH]cn1
GI50 (P388): > 500 µM (inactive)
GI50 (SN12K1): > 500 µM (inactive)
GI50 (P388/ADR): > 316 µM (inactive)

CN(C)CCOc1cc2c(c3ccccc13)-c1ccccc1C2O (configuration not stated)
GI50 (P388): 5.02 µM (inactive)
GI50 (SN12K1): 6.62 µM (inactive)
GI50 (P388/ADR): 5.77 µM (inactive)

CC1=CC(=O)C(C(C)C)=C/C1=C(\c1cc(C(C)C)c(OP(=O)(O)O)cc1C)c1ccccc1C(=O)O
AC50 [3]: 2.27 µM (active)
IC50 (Genome polyprotein): 33.4 µM (active)

O=S(=O)(O)c1cc(/N=N/c2cc(S(=O)(=O)O)c3ccccc3c2O)ccc1/C=C/c1ccc(/N=N/c2cc(S(=O)(=O)O)c3ccccc3c2O)cc1S(=O)(=O)O
GI50 (P388): > 100 µM (inactive)
GI50 (SN12K1): > 78.9 µM (inactive)
GI50 (P388/ADR): 36.6 µM (inactive)

C[C@H](CO)N1C[C@H](C)[C@H](CN(C)Cc2ccc(C(=O)Nc3ccccc3N)cc2)Oc2ccc(NC(=O)C3CC3)cc2CC1=O
AC50 [4]: 2.66 µM (active)

Cc1ccc(S(=O)(=O)N(C)C[C@H]2Oc3c(NC(=O)c4nc5ccccc5s4)cccc3C(=O)N([C@H](C)CO)C[C@@H]2C)cc1
AC50 [4]: 0.839 µM (active)

CSC1SCC2C(=O)N(C)C(C(C)C)C(=O)OCC(NC(=O)c3cnc4ccccc4n3)C(=O)NC(C)C(=O)N(C)C1C(=O)N(C)C(C(C)C)C(=O)OCC(NC(=O)c1cnc3ccccc3n1)C(=O)NC(C)C(=O)N2C (configuration not stated)
GI50 (P388): 0.0075 µM (active)
IC50 (Protein skinhead-1): 81.5 µM (inactive)
GI50 (SN12K1): 0.0075 µM (active)
AC50 [5]: < 0.26 µM (active)
GI50 (P388/ADR): 9.55e-05 µM (active)
AC50 [6]: < 0.26 µM (active)

O=CC(NC(=O)N(CCCl)N=O)C(O)C(O)C(O)CO (configuration not stated)
GI50 (P388): 97.7 µM (inactive)
GI50 (SN12K1): 760 µM (inactive)
GI50 (P388/ADR): 79.6 µM (inactive)

CN(C)C(=O)Oc1c(Br)cc(Br)cc1C(=O)OCc1ccccc1
GI50 (P388): 17.9 µM (inactive)
GI50 (SN12K1): 28.4 µM (inactive)
GI50 (P388/ADR): 16 µM (inactive)

CC(=O)c1c(O)n(Nc2nc(C)cc(C)n2)c(C)cc1=O
IC50 (Nonstructural protein 1): 12.9 µM (active)

O=C(OC[C@H]1O[C@@H](OC(=O)c2cc(O)c(O)c(OC(=O)c3cc(O)c(O)c(O)c3)c2)[C@H](OC(=O)c2cc(O)c(O)c(OC(=O)c3cc(O)c(O)c(O)c3)c2)[C@@H](OC(=O)c2cc(O)c(O)c(OC(=O)c3cc(O)c(O)c(O)c3)c2)[C@@H]1OC(=O)c1cc(O)c(O)c(OC(=O)c2cc(O)c(O)c(O)c2)c1)c1cc(O)c(O)c(OC(=O)c2cc(O)c(O)c(O)c2)c1 [TANNIC ACID]
IC50 (Large T antigen): < 0.16 µM (active)
